# Results from patent publication US20260022143A1, “Cyclic Peptide Inhibitors of IL-23” (JANSSEN PHARMACEUTICA NV, priority 2022, published 2026).
# Counter-ions that a name gives are not always drawn. Starred links: 1 amine or outer side, 2 acyl side, 3 side chain; linkers in the order of their positions; H or OH if unused. Positions of bridges follow the written chain, without caps; N, C: chain ends. Non-standard residues stand in square brackets, D forms with d. Residues, ends and D or L forms follow the SMILES beside them. Groups on a side chain read outwards from the residue. *: point of attachment. Me3N+CH2CH2(OCH2CH2)4CO = C[N+](C)(C)CCOCCOCCOCCOCCC(=O)*; Me3N+(CH2)2O(CH2)2O(CH2)2CO = C[N+](C)(C)CCOCCOCCC(=O)*; Ala(1-Me-3-pyridinium) = C[n+]1cccc(C[C@H](N)C(=O)O)c1; Trp(7-Me) = Cc1cccc2c(C[C@H](N)C(=O)O)c[nH]c12; PEG9 = NCCOCCOCCOCCOCCOCCOCCOCCOCCOCCC(=O)O; Hexanoyl(6-NMe3+) = C[N+](C)(C)CCCCCC(=O)*; dLys(Me3) = C[N+](C)(C)CCCC[C@@H](N)C(=O)O; 3Pal(5-Me) = Cc1cncc(C[C@H](N)C(=O)O)c1; Dab(NMeAc) = CC(=O)N(C)CC[C@H](N)C(=O)O; γGlu = O=C(O)[C@H](CCC(=O)[*:2])N[*:1]; 2Nal = N[C@@H](Cc1ccc2ccccc2c1)C(=O)O; AEF = NCCOc1ccc(C[C@H](N)C(=O)O)cc1; dNMeY = CN[C@H](Cc1ccc(O)cc1)C(=O)O; dLys(Me) = CNCCCC[C@@H](N)C(=O)O; 3Pal = N[C@@H](Cc1cccnc1)C(=O)O; Myristoyl = CCCCCCCCCCCCCC(=O)*; Lys(Me) = CNCCCC[C@H](N)C(=O)O; Pen = CC(C)(S)[C@H](N)C(=O)O; αMeK = C[C@](N)(CCCCN)C(=O)O; Thp = NC1(C(=O)O)CCOCC1; Dap = NC[C@H](N)C(=O)O; X3 = C[N+](C)(C)CCCCC*; AEEA = NCCOCCOCC(=O)O; Me2NCH2CH2 = CN(C)CC*; Tfa = O=C(C(F)(F)F)*; Sar = CNCC(=O)O
# Test: Exposed Polar Surface Area (EPSA)
# Type: physicochemical
# Settings: SFC on Chirex 3014 column; sample 1 mM DMSO stock; read-out: EPSA
# Outline: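 SFC retention on a Chirex 3014 (S-valine/(R)-1-(α-naphthyl)ethylamine) column at 35 °C, 4 mL/min, 14 MPa outlet, 5–60% methanol/20 mM ammonium formate gradient in CO2. Retention times converted to EPSA (Å²) via linear calibration with 8 standards; samples from 1 mM DMSO stock, run in duplicate.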
row,SMILES,EPSA
1,"CC(=O)NCCCC[C@@H]1NC(=O)[C@H](Cc2c[nH]c3c(C)cccc23)NC(=O)[C@H]([C@@H](C)O)NC(=O)[C@H](CC(N)=O)NC(=O)[C@@H](NC(C)=O)C(C)(C)SSC(C)(C)[C@@H](C(=O)N[C@@H](Cc2ccc(OCCN)cc2)C(=O)N[C@@H](Cc2ccc3ccccc3c2)C(=O)N[C@@](C)(CCCCN)C(=O)N[C@@H](CCCCNC(C)=O)C(=O)N[C@@H](CC(N)=O)C(=O)N[C@H](CO)C(=O)N(C)[C@H](Cc2ccc(O)cc2)C(N)=O)NC1=O [compound 19, MeCO-Pen(3)-N-T-7MeW-K(Ac)-Pen(3)-AEF-2Nal-aMeK-K(Ac)-N-s-NMeDTyr-CONH2] (Ac-[Pen]NT[Trp(7-Me)]K(Ac)[Pen][AEF][2Nal][αMeK]K(Ac)N[dS][dNMeY]-NH2; disulfide 1-6)",171 A^2
2,CC(=O)N(C)CCCC[C@@H]1NC(=O)[C@H](Cc2c[nH]c3c(C)cccc23)NC(=O)[C@H]([C@@H](C)O)NC(=O)[C@H](CC(N)=O)NC(=O)[C@@H](NC(=O)C(F)(F)F)C(C)(C)SSC(C)(C)[C@@H](C(=O)N[C@@H](Cc2ccc(OCCN)cc2)C(=O)N[C@@H](Cc2ccc3ccccc3c2)C(=O)NC2(C(=O)N[C@@H](CCCCN(C)C(C)=O)C(=O)N[C@@H](CC(N)=O)C(=O)N[C@@H](Cc3cccnc3)C(=O)N(C)CC(N)=O)CCOCC2)NC1=O [compound 69] (Tfa-[Pen]NT[Trp(7-Me)][Lys(Me)](Ac)[Pen][AEF][2Nal][Thp][Lys(Me)](Ac)N[3Pal][Sar]-NH2; disulfide 1-6),161 A^2
3,"CC(=O)N(C)CCCC[C@@H]1NC(=O)[C@H](Cc2c[nH]c3c(C)cccc23)NC(=O)[C@H]([C@@H](C)O)NC(=O)[C@H](CC(=O)N(C)C)NC(=O)[C@@H](NC(=O)CCOCCOCC[N+](C)(C)C)C(C)(C)SSC(C)(C)[C@@H](C(=O)N[C@@H](Cc2ccc(OCCN(C)C)cc2)C(=O)N[C@@H](Cc2ccc3ccccc3c2)C(=O)NC2(C(=O)N[C@@H](CCCCN(C)C(C)=O)C(=O)N[C@@H](CC(N)=O)C(=O)N[C@@H](Cc3cccnc3)C(=O)N(C)CC(=O)N(C)C)CCOCC2)NC1=O [compound 321, cPEG3aCO-Pen(3)-N(N(Me)2)-T-7MeW-K(NMeAc)-Pen(3)-AEF(N(Me)2)-2Nal-THP-K(NMeAc)-N-3Pya-Sar-CON(Me)2] ({Me3N+(CH2)2O(CH2)2O(CH2)2CO}-[Pen]D(NMe2)T[Trp(7-Me)][Lys(Me)](Ac)[Pen]Y(Me2NCH2CH2)[2Nal][Thp][Lys(Me)](Ac)N[3Pal][Sar]-NMe2; disulfide 1-6)",153 A^2
4,CC(=O)NCCCC[C@H](NC(=O)C1(NC(=O)[C@H](Cc2ccc3ccccc3c2)NC(=O)[C@H](Cc2ccc(OCCN)cc2)NC(=O)[C@H]2NC(=O)[C@H](CCN(C)C(C)=O)NC(=O)[C@H](Cc3c[nH]c4c(C)cccc34)NC(=O)[C@H]([C@@H](C)O)NC(=O)[C@H](CC(N)=O)NC(=O)[C@@H](NC(=O)C(F)(F)F)C(C)(C)SSC2(C)C)CCOCC1)C(=O)N[C@@H](CC(N)=O)C(=O)N[C@@H](Cc1ccc[n+](C)c1)C(=O)N(C)CC(N)=O [compound 51] (Tfa-[Pen]NT[Trp(7-Me)][Dab(NMeAc)][Pen][AEF][2Nal][Thp]K(Ac)N[Ala(1-Me-3-pyridinium)][Sar]-NH2; disulfide 1-6),156 A^2
5,"CCCCCCCCCCCCCC(=O)N[C@@H](CCC(=O)NCCOCCOCC(=O)NCCOCCOCC(=O)NCCCC[C@@H]1NC(=O)[C@H](Cc2c[nH]c3c(C)cccc23)NC(=O)[C@H]([C@@H](C)O)NC(=O)[C@H](CC(=O)N(C)C)NC(=O)[C@@H](NC(=O)CCOCCOCC[N+](C)(C)C)C(C)(C)SSC(C)(C)[C@@H](C(=O)N[C@@H](Cc2ccc(OCCCCC[N+](C)(C)C)cc2)C(=O)N[C@@H](Cc2ccc3ccccc3c2)C(=O)NC2(C(=O)N[C@@H](CCCCN(C)C(C)=O)C(=O)N[C@@H](CC(N)=O)C(=O)N[C@@H](Cc3cccnc3)C(=O)N(C)CC(=O)N(C)C)CCOCC2)NC1=O)C(=O)O [compound 399, cPEG3aCO-Pen(3)-N(N(Me)2)-T-7MeW-K(PEG2PEG2gEC14)-Pen(3)-TMAPF-2Nal-THP-K(NMeAc)-N-3Pya-Sar-CON(Me)2] ({Me3N+(CH2)2O(CH2)2O(CH2)2CO}-[Pen]D(NMe2)T[Trp(7-Me)]K([AEEA-AEEA-γGlu-Myristoyl])[Pen]Y(X3)[2Nal][Thp][Lys(Me)](Ac)N[3Pal][Sar]-NMe2; disulfide 1-6)",157 A^2
6,"CC(=O)NCCCC[C@@H]1NC(=O)[C@H](Cc2c[nH]c3c(C)cccc23)NC(=O)[C@H]([C@@H](C)O)NC(=O)[C@H](CC(N)=O)NC(=O)[C@@H](NC(=O)C(COCCOCC[N+](C)(C)C)NC(C)=O)C(C)(C)SSC(C)(C)[C@@H](C(=O)N[C@@H](Cc2ccc(OCCCCC[N+](C)(C)C)cc2)C(=O)N[C@@H](Cc2ccc3ccccc3c2)C(=O)NC2(C(=O)N[C@@H](CCC(=O)O)C(=O)N[C@@H](CC(N)=O)C(=O)N[C@@H](Cc3cccnc3)C(=O)N(C)CC(N)=O)CCOCC2)NC1=O (mixture of isomers) [compound 555, MeCO-APEG2Ser(RS)-Pen(3)-N-T-7MeW-K(Ac)-Pen(3)-TMAPF-2Nal-THP-E-N-3Pya-Sar-CONH2]",171 A^2
7,CC(=O)NCCCC[C@@H]1NC(=O)[C@H](Cc2c[nH]c3c(C)cccc23)NC(=O)[C@H]([C@@H](C)O)NC(=O)[C@H](CC(N)=O)NC(=O)[C@@H](NC(=O)CCCCC[N+](C)(C)C)C(C)(C)SSC(C)(C)[C@@H](C(=O)N[C@@H](Cc2ccc(OCCN)cc2)C(=O)N[C@@H](Cc2ccc3ccccc3c2)C(=O)NC2(C(=O)N[C@@H](CNC(C)=O)C(=O)N[C@@H](CC(N)=O)C(=O)N[C@@H](Cc3cccnc3)C(=O)N(C)CC(N)=O)CCOCC2)NC1=O [compound 99] ({Hexanoyl(6-NMe3+)}-[Pen]NT[Trp(7-Me)]K(Ac)[Pen][AEF][2Nal][Thp][Dap](Ac)N[3Pal][Sar]-NH2; disulfide 1-6 (inferred)),164 A^2
8,CC(=O)NCCCC[C@@H]1NC(=O)[C@H](Cc2c[nH]c3c(C)cccc23)NC(=O)[C@H]([C@@H](C)O)NC(=O)[C@H](CC(N)=O)NC(=O)[C@@H](NC(C)=O)C(C)(C)SSC(C)(C)[C@@H](C(=O)N[C@@H](Cc2ccc(OCCN)cc2)C(=O)N[C@@H](Cc2ccc3ccccc3c2)C(=O)NC2(C(=O)N[C@H](CCCCN(C)C(=O)CCOCCOCCOCCOCC[N+](C)(C)C)C(=O)N[C@@H](CC(N)=O)C(=O)N[C@@H](Cc3cccnc3)C(=O)N(C)CC(N)=O)CCOCC2)NC1=O [compound 111] (Ac-[Pen]NT[Trp(7-Me)]K(Ac)[Pen][AEF][2Nal][Thp][dLys(Me)](Me3N+CH2CH2(OCH2CH2)4CO)N[3Pal][Sar]-NH2; disulfide 1-6),153 A^2
9,"CCCCCCCCCCCCCC(=O)N[C@@H](CCC(=O)NCCOCCOCC(=O)NCCOCCOCC(=O)NCCCC[C@@H]1NC(=O)[C@H](Cc2c[nH]c3c(C)cccc23)NC(=O)[C@H]([C@@H](C)O)NC(=O)[C@H](CCCCNC(=O)COCCOCCNC(=O)COCCOCCNC(=O)CC[C@H](NC(=O)CCCCCCCCCCCCC)C(=O)O)NC(=O)[C@@H](NC(=O)CCOCCOCC[N+](C)(C)C)C(C)(C)SSC(C)(C)[C@@H](C(=O)N[C@@H](Cc2ccc(OCCCCC[N+](C)(C)C)cc2)C(=O)N[C@@H](Cc2ccc3ccccc3c2)C(=O)NC2(C(=O)N[C@@H](CCCCN(C)C(C)=O)C(=O)N[C@@H](CC(N)=O)C(=O)N[C@@H](Cc3cccnc3)C(=O)N(C)CC(=O)N(C)C)CCOCC2)NC1=O)C(=O)O [compound 396, cPEG3aCO-Pen(3)-K(PEG2PEG2gEC14)-T-7MeW-K(PEG2PEG2gEC14)-Pen(3)-TMAPF-2Nal-THP-K(NMeAc)-N-3Pya-Sar-CON(Me)2] ({Me3N+(CH2)2O(CH2)2O(CH2)2CO}-[Pen]K([AEEA-AEEA-γGlu-Myristoyl])T[Trp(7-Me)]K([AEEA-AEEA-γGlu-Myristoyl])[Pen]Y(X3)[2Nal][Thp][Lys(Me)](Ac)N[3Pal][Sar]-NMe2; disulfide 1-6)",172 A^2
10,"Cc1cccc2c(C[C@@H]3NC(=O)[C@H]([C@@H](C)O)NC(=O)[C@H](CC(=O)N(C)C)NC(=O)[C@@H](NC(=O)CCCCC[N+](C)(C)C)C(C)(C)SSC(C)(C)[C@@H](C(=O)N[C@@H](Cc4ccc(OCCN(C)C)cc4)C(=O)N[C@@H](Cc4ccc5ccccc5c4)C(=O)NC4(C(=O)N[C@@H](CCC(=O)N(C)C)C(=O)N[C@@H](CC(N)=O)C(=O)N[C@@H](Cc5cccnc5)C(=O)N(C)CC(=O)N(C)C)CCOCC4)NC(=O)[C@H](CCC(=O)N(C)C)NC3=O)c[nH]c12 [compound 91, 5cpaCO-Pen(3)-N(N(Me)2)-T-7MeW-Q(N(Me)2)-Pen(3)-AEF(N(Me)2)-2Nal-THP-Q(N(Me)2)-N-3Pya-Sar-CON(Me)2] ({Hexanoyl(6-NMe3+)}-[Pen]D(NMe2)T[Trp(7-Me)]E(NMe2)[Pen]Y(Me2NCH2CH2)[2Nal][Thp]E(NMe2)N[3Pal][Sar]-NMe2; disulfide 1-6)",145 A^2
11,CC(=O)NCCCC[C@@H]1NC(=O)[C@H](Cc2c[nH]c3c(C)cccc23)NC(=O)[C@H]([C@@H](C)O)NC(=O)[C@H](CC(N)=O)NC(=O)[C@@H](NC(=O)[C@@H](CCCC[N+](C)(C)C)NC(C)=O)C(C)(C)SSC(C)(C)[C@@H](C(=O)N[C@@H](Cc2ccc(OCCN)cc2)C(=O)N[C@@H](Cc2ccc3ccccc3c2)C(=O)NC2(C(=O)N[C@@H](CCC(=O)O)C(=O)N[C@@H](CC(N)=O)C(=O)N[C@@H](Cc3cncc(C)c3)C(=O)N(C)CC(N)=O)CCOCC2)NC1=O [compound 474] (Ac-[dLys(Me3)][Pen]NT[Trp(7-Me)]K(Ac)[Pen][AEF][2Nal][Thp]EN[3Pal(5-Me)][Sar]-NH2; disulfide 2-7),185 A^2
12,CC(=O)NCCCC[C@@H]1NC(=O)[C@H](Cc2c[nH]c3c(C)cccc23)NC(=O)[C@H]([C@@H](C)O)NC(=O)[C@H](CC(N)=O)NC(=O)[C@@H](NC(=O)[C@@H](CCCNC(=N)N)NC(=O)CCOCCOCCOCCOCCOCCOCCOCCOCCOCCNC(C)=O)C(C)(C)SSC(C)(C)[C@@H](C(=O)N[C@@H](Cc2ccc(OCCN)cc2)C(=O)N[C@@H](Cc2ccc3ccccc3c2)C(=O)NC2(C(=O)N[C@@H](CCC(=O)O)C(=O)N[C@@H](CC(N)=O)C(=O)N[C@@H](Cc3cccnc3)C(=O)N(C)CC(N)=O)CCOCC2)NC1=O [compound 43] (Ac-[PEG9][dR][Pen]NT[Trp(7-Me)]K(Ac)[Pen][AEF][2Nal][Thp]EN[3Pal][Sar]-NH2; disulfide 3-8),173 A^2
